Measurements taken from patent US20240269304A1, “BCL-XL INHIBITOR ANTIBODY-DRUG CONJUGATES AND METHODS OF USE THEREOF” (Novartis AG, priority 2020, published 2024).
Where two headings read alike, the source gives them in different places.

Tests used:
NCI-H1650 = experiment: CellTiter Glo 3D spheroid proliferation/survival, 5 days, NCI-H1650, 0.0005-500 nM (Example 10); format: cell-based, human; conditions: spheroids; for IC50 / NCI-H1650 IC50 (nM): 0.0005-500 nM
Protocol: One target was assessed: EGFR.
The ability of the BCL-xL antibody drug conjugates to inhibit cell proliferation and survival was assessed using the Promega CellTiter-Glo® proliferation assay.
Cell lines were cultured in media that is optimal for their growth at 5% CO2, 37° C. in a tissue culture incubator. Prior to seeding for the proliferation assay, the cells were split at least 2 days before the assay to ensure optimal growth density. […] Cell viability and cell density were determined using a cell counter (Vi-Cell XR Cell Viability Analyzer, Beckman Coulter).
Cells were seeded at a density of 3,000 cells per well in 45 uL of standard growth media. Plates were spun in a centrifuge for 5 minutes and 1,000 RPM. Plates were incubated at 5% CO2, 37° C. for 72 hours in a tissue culture incubator. On the day of dosing, EGFR targeting BCL-xL ADCs were prepared at 1OX in standard growth media. The prepared drug treatments were then added to the cells resulting in final concentrations of 0.0005-500 nM and a final volume of 50 μL per well. Each drug concentration was tested in quadruplets. Plates were incubated at 5% CO2, 37° C. for 5 days in a tissue culture incubator.
Cell viability was assessed through the addition of 40 μL of CellTiter Glo 3D Cell Viability Assay substrate (Promega, cat #G9681), a reagent which lyses cells and measures total adenosine triphosphate (ATP) content. Wells were mixed thoroughly and plates were incubated at room temperature for 30 minutes to stabilize luminescent signals prior to reading using a luminescence reader (EnVision Multilabel Plate Reader, PerkinElmer).
To evaluate the effect of the drug treatments, luminescent counts from wells containing untreated cells (100% viability) were used to normalize treated samples. […] IC50 and Amax values were extrapolated from the resultant curves.

HCC1569 cells = experiment: CellTiterGlo (CTG) cell viability, 120 h, HCC1569, single agent or with 10 nM Paclitaxel; format: cell-based; conditions: Homo sapiens
Protocol: HCC1569 cells were cultivated in RPMI supplemented with 10% heat inactivated fetal bovine serum, penicillin (100 IU/ml), streptomycin (100 μg/ml) and L-glutamine (2 mM). Cell lines were cultured at 37° C. in a humidified atmosphere containing 5% 002. […] Effects of ADCs on cell viability were assessed after 5 days of incubation at 37° C./5% CO2 by quantification of cellular ATP levels using CellTiterGlo at 75 μL reagent/well. All the conditions were tested in triplicates. Luminescence was quantified on a multipurpose plate reader. IC50s were calculated using standard four-parametric curve fitting.

H1650 cells = experiment: CellTiterGlo (CTG) cell viability, 3D, 120 h, H1650 (Example 8); format: cell-based, human; conditions: Homo sapiens, NCI-H1650, H1650 3D
[1] = HCC1569, read-out: HCC1569 CTG 120 h IC50 nM + Paclitaxel 10 nM Mean N1 and N2, in the presence of 10 nM Paclitaxel, mean
[2] = HCC1569, read-out: HCC1569 CTG 120 h IC50 nM + Paclitaxel 10 nM N1, in the presence of 10 nM Paclitaxel, N1
[3] = HCC1569, read-out: HCC1569 CTG 120 h IC50 nM + Paclitaxel 10 nM N2, in the presence of 10 nM Paclitaxel, N2
[4] = HCC1569, read-out: HCC1569 CTG 120 h IC50 nM Mean N1 and N2, single agent, mean
[5] = HCC1569, read-out: HCC1569 CTG 120 h IC50 nM N1, single agent, N1
[6] = HCC1569, read-out: HCC1569 CTG 120 h IC50 nM N2, single agent, N2
[7] = experiment n1, read-out: H1650 3D CTG IC50 n1
[8] = experiment n2, read-out: H1650 3D CTG IC50 n2
[9] = mean of n1 and n2, read-out: H1650 3D CTG IC50 Mean of n1 and n2

Work on `COCCOCCOCCOCCOCCOCCOCCOCCn1cc(COC(=O)N(Cc2cn(CCOCCOCCOCCOCCOCCOCCOCCOC)nn2)Cc2cc(NC(=O)[C@H](CCCNC(N)=O)NC(=O)[C@@H](NC(=O)CCOCCN3C(=O)CC(C)C3=O)C(C)C)ccc2C[N+](C)(C)CC#Cc2ccc(OCCCc3sc(N4CCCc5c4nnc(Nc4nc6ccccc6s4)c5C)nc3C(=O)O)c(F)c2)nn1` (mixture of isomers) [EGFR1-L1A-P1] yielded an IC50 (NCI-H1650) of under 0.686 nM.

`Cc1c(Nc2nc3ccccc3s2)nnc2c1CCCN2c1nc(C(=O)O)c(CCCOc2ccc(C#CCN(C)C(=O)COc3ccc(NC(=O)[C@H](CCCNC(N)=O)NC(=O)[C@@H](NC(=O)CCOCCN4C(=O)CC(C)C4=O)C(C)C)cc3CN(C)C(=O)OCc3cn(CCOCCOCCOCCOCCOCCOCCOCCOCCC(=O)O)nn3)cc2F)s1` (mixture of isomers) [EGFR1-L3C-P3] was tested, and the “NCI-H1650 Amax (Span)” value (NCI-H1650) was 100.6.

`Cc1c(Nc2nc3ccccc3s2)nnc2c1CCCN2c1ccc(-c2cnn(CC34CC5(C)CC(C)(C3)CC(OCCN(CCCO)C(=O)OCc3ccc(NC(=O)[C@H](CCCNC(N)=O)NC(=O)[C@@H](NC(=O)CCOCCN6C(=O)C=CC6=O)C(C)C)cc3CN(C)C(=O)CCOCCOCCOCCOCCOCCOCCOCCOCCOCCOCCOCCOCCOCCOCCOCCOCCOCCOCCOCCOCCOCCOCCOCCOCCOCCC(=O)O)(C5)C4)c2C)c(C(=O)O)n1` [L11C-P25] was tested, and the “NCI-H1650 IC50 (nM)” value (NCI-H1650) was “among the most potent”.

`COCOCCOCCOCCOCCOCCOCCOCCn1cc(COCc2cc(NC(=O)[C@@H](CCCNC(N)=O)NC(=O)[C@H](NC(=O)CCOCCN3C(=O)CC(C)C3=O)C(C)C)ccc2C[N+](C)(C)CC#Cc2ccc(OCCCc3sc(N4CCCc5c4nnc(Nc4nc6ccccc6s4)c5C)nc3C(=O)O)c(F)c2)nn1` (mixture of isomers) [EGFR1-L8A-P1] showed an IC50 (NCI-H1650) of under 2.06 nM.

`Cc1cc(N(CCCC(O)C[N+](C)(C)C)c2nc(C(=O)O)c(CCCOc3ccc(C#CCN(C)C(=O)OCc4ccc(NC(=O)[C@H](CCCNC(N)=O)NC(=O)[C@@H](NC(=O)CCOCCN5C(=O)CC(C)C5=O)C(C)C)cc4)cc3F)s2)nnc1Nc1nc2ccccc2s1` (mixture of isomers) [EGFR1-L9C-P5] was tested, and the IC50 (NCI-H1650) was over 500 nM.

Work on `Cc1cc(N(CCCC(O)C[N+](C)(C)C)c2nc(C(=O)O)c(CCCOc3ccc(C#CCN(C)C(=O)OCc4ccc(NC(=O)[C@H](CCCNC(N)=O)NC(=O)[C@@H](NC(=O)CCOCCN5C(=O)CC(C)C5=O)C(C)C)cc4CN(C)C(=O)OCc4cn(CCOCCOCCOCCOCCOCCOCCOCCOCCC(=O)O)nn4)cc3F)s2)nnc1Nc1nc2ccccc2s1` (mixture of isomers) [EGFR1-L3C-P5] yielded an IC50 (NCI-H1650) of over 500 nM.

Compound `COCCOCCOCCOCCOCCOCCOCCOCCn1cc(COC(=O)N(Cc2cn(CCOCCOCCOCCOCCOCCOCCOCCOC)nn2)Cc2cc(NC(=O)[C@H](CCCNC(N)=O)NC(=O)[C@@H](NC(=O)CCOCCN3C(=O)CC(C)C3=O)C(C)C)ccc2C[N+](C)(C)CC#Cc2ccc(OCCCc3sc(N(C)c4cc(C)c(Nc5nc6ccccc6s5)nn4)nc3C(=O)O)c(F)c2)nn1` (mixture of isomers) [EGFR1-L1A-P2] has an IC50 (NCI-H1650) of under 6.17 nM.

`Cc1cc(N(CCCN(C)C)c2nc(C(=O)O)c(CCCOc3ccc(C#CCN(C)C(=O)OCc4ccc(NC(=O)[C@H](CCCNC(N)=O)NC(=O)[C@@H](NC(=O)CCOCCN5C(=O)CC(C)C5=O)C(C)C)cc4COCc4cn(CCOCCOCCOCCOCCOCCOCCOCCOCCC(=O)O)nn4)cc3F)s2)nnc1Nc1nc2ccccc2s1` (mixture of isomers) [EGFR1-L7C-P6] showed an IC50 (NCI-H1650) of over 500 nM.

`Cc1cc(N(C)c2nc(C(=O)O)c(CCCOc3ccc(C#CCN(C)C)cc3F)s2)nnc1Nc1nc2ccccc2s1` [P2, 2-[[6-(1,3-benzothiazol-2-ylamino)-5-methyl-pyridazin-3-yl]-methyl-amino]-5-[3-[4-[3-(dimethylamino)prop-1-ynyl]-2-fluoro-phenoxy]propyl]thiazole-4-carboxylic acid] gave an IC50 (HCC1569 cells; [1]) of 0.111 nM, an IC50 (HCC1569 cells; [2]) of 0.126 nM and an IC50 (HCC1569 cells; [3]) of 0.096 nM. For the same compound, the IC50 (HCC1569 cells; [4]) was 12.4 nM, the IC50 (HCC1569 cells; [5]) was 13.1 nM and the IC50 (HCC1569 cells; [6]) was 11.7 nM. It also gave an IC50 (H1650 cells; [7]) of 1.06 nM, an IC50 (H1650 cells; [8]) of 1.9 nM and an IC50 (H1650 cells; [9]) of 1.48 nM.

For `Cc1c(Nc2nc3ccccc3s2)nnc2c1CCCN2c1ccc(-c2cnn(CC34CC5(C)CC(C)(C3)CC(OCCN(CC[C@H](O)CO)C(=O)OCc3ccc(NC(=O)[C@H](CCCNC(N)=O)NC(=O)[C@@H](NC(=O)CCOCCN6C(=O)C=CC6=O)C(C)C)cc3CN(C)C(=O)CCOCCOCCOCCOCCOCCOCCOCCOCCOCCOCCOCCOCCOCCOCCOCCOCCOCCOCCOCCOCCOCCOCCOCCOCCOCCC(=O)O)(C5)C4)c2C)c(C(=O)O)n1` [L11C-P19], the “NCI-H1650 IC50 (nM)” value (NCI-H1650) was “among the most potent”.

`Cc1c(Nc2nc3ccccc3s2)nnc2c1CCCN2c1nc(C(=O)O)c(CCCOc2ccc(C#CC[N+](C)(C)Cc3ccc(NC(=O)[C@H](CCCNC(N)=O)NC(=O)[C@@H](NC(=O)CCOCCN4C(=O)CC(C)C4=O)C(C)C)cc3COCc3cn(CCOCCOCCOCCOCCOCCOCCOCCOCCC(=O)O)nn3)cc2F)s1` (mixture of isomers) [EGFR1-L7A-P1] showed an IC50 (NCI-H1650) of under 0.686 nM.

With `Cc1c(Nc2nc3ccccc3s2)nnc2c1CCCN2c1nc(C(=O)O)c(CCCOc2ccc(C#CC[N+](C)(C)Cc3ccc(NC(=O)[C@H](CCCNC(N)=O)NC(=O)[C@@H](NC(=O)CCOCCN4C(=O)CC(C)C4=O)C(C)C)cc3CN(C)C(=O)OCc3cn(CCOCCOCCOCCOCCOCCOCCOCCOCCC(=O)O)nn3)cc2F)s1` (mixture of isomers) [EGFR1-L3A-P1] the “NCI-H1650 Amax (Span)” value (NCI-H1650) was over 100 and the IC50 (NCI-H1650) was under 0.686 nM.

Compound `Cc1cc(N(C)c2nc(C(=O)O)c(CCCOc3ccc(C#CCN(C)C(=O)OCc4ccc(NC(=O)[C@H](CCCNC(N)=O)NC(=O)[C@@H](NC(=O)CCOCCN5C(=O)CC(C)C5=O)C(C)C)cc4COCc4cn(CCOCCOCCOCCOCCOCCOCCOCCOCCC(=O)O)nn4)cc3F)s2)nnc1Nc1nc2ccccc2s1` (mixture of isomers) [EGFR1-L7C-P7] has an IC50 (NCI-H1650) of under 55.6 nM.

Work on `CNCC#Cc1ccc(OCCCc2sc(N(C)c3cc(C)c(Nc4nc5ccccc5s4)nn3)nc2C(=O)O)c(F)c1` [P7, 2-[[6-(1,3-benzothiazol-2-ylamino)-5-methyl-pyridazin-3-yl]-methyl-amino]-5-[3-[2-fluoro-4-[3-(methylamino)prop-1-ynyl]phenoxy]propyl]thiazole-4-carboxylic acid] yielded an IC50 (HCC1569 cells; [1]) of 0.436 nM, an IC50 (HCC1569 cells; [2]) of 0.443 nM and an IC50 (HCC1569 cells; [3]) of 0.429 nM. For the same compound, the IC50 (HCC1569 cells; [4]) was 33 nM, the IC50 (HCC1569 cells; [5]) was 40.3 nM and the IC50 (HCC1569 cells; [6]) was 25.6 nM. For the same compound, the IC50 (H1650 cells; [7]) was 7.5 nM, the IC50 (H1650 cells; [8]) was 4.7 nM and the IC50 (H1650 cells; [9]) was 6.1 nM.

Work on `Cc1c(Nc2nc3ccccc3s2)nnc2c1CCCN2c1nc(C(=O)O)c(CCCOc2ccc(C#CCN(C)C(=O)OCc3ccc(NC(=O)[C@H](CCCNC(N)=O)NC(=O)[C@@H](NC(=O)CCOCCN4C(=O)CC(C)C4=O)C(C)C)cc3COCc3cn(CCOCCOCCOCCOCCOCCOCCOCCOCCC(=O)O)nn3)cc2F)s1` (mixture of isomers) [EGFR1-L7C-P3] yielded an IC50 (NCI-H1650) of under 6.17 nM.

Work on `Cc1cc(N(CCCC(O)C[N+](C)(C)CCS(=O)(=O)O)c2nc(C(=O)O)c(CCCOc3ccc(C#CCN(C)C(=O)OCc4ccc(NC(=O)[C@H](CCCNC(N)=O)NC(=O)[C@@H](NC(=O)CCOCCN5C(=O)CC(C)C5=O)C(C)C)cc4)cc3F)s2)nnc1Nc1nc2ccccc2s1` (mixture of isomers) [EGFR1-L9C-P4] yielded an IC50 (NCI-H1650) of over 500 nM.
